Assay results: ChEMBL document CHEMBL4325861, “Naphthalene, a versatile platform in medicinal chemistry: Sky-high perspective” (Eur J Med Chem, 2019)
Converted amounts (≈) assume the structure as drawn.

What was measured:
[1] = tested on: Aspergillus niger; assay: Antifungal activity against Aspergillus niger by disk diffusion method; type: functional
[2] = Inhibition of Norovirus RNA-dependent RNA polymerase
[3] = tested on: P388; assay: Antiproliferative activity against mouse P388 cells; type: functional, cell-based
[4] = tested on: A549; assay: Antiproliferative activity against human A549 cells; type: functional, cell-based
[5] = tested on: HT-29; assay: Antiproliferative activity against human HT-29 cells; type: functional, cell-based
[6] = Antiproliferative activity against human MEL28 cells; type: functional, cell-based; details: SK-MEL-28
[7] = tested on: Rattus norvegicus; assay: Anti-inflammatory activity in rat assessed as inhibition of carrageenan-induced paw edema relative to control; type: functional
[8] = target: Chymase (Homo sapiens, UniProt P23946); assay: Inhibition of chymase in human mast cells using Suc-Ala-Ala-Pro-Phe-(p-nitroanilide) as substrate for 15 mins by spectrophotometric method; type: cell-based
[9] = tested on: Mycobacterium avium; assay: Antimycobacterial activity against Mycobacterium avium; type: functional
[10] = tested on: THP-1; assay: Anti-inflammatory activity in human THP1 cells assessed as reduction in TNF production; type: functional, cell-based
[11] = tested on: HeLa; assay: Antiproliferative activity against human HeLa cells; type: functional, cell-based
[12] = tested on: HL-60; assay: Antiproliferative activity against human HL60 cells; type: functional, cell-based
[13] = tested on: MT4; assay: Antiproliferative activity against human MT4 cells; type: functional
[14] = tested on: HepG2; assay: Antiproliferative activity against human HepG2 cells; type: functional, cell-based
[15] = tested on: Staphylococcus aureus; assay: Antibacterial activity against Staphylococcus aureus; type: functional
[16] = tested on: Candida albicans; assay: Antifungal activity against Candida albicans; type: functional
[17] = tested on: Pichia kudriavzevii; assay: Antifungal activity against Candida krusei; type: functional
[18] = tested on: Mycobacterium tuberculosis; assay: Antimycobacterial activity against Mycobacterium tuberculosis H37Ra; type: functional
[19] = tested on: Mycobacterium tuberculosis; assay: Antimycobacterial activity against Mycobacterium tuberculosis; type: functional
[20] = tested on: Mycobacterium tuberculosis; assay: Antimycobacterial activity against Mycobacterium tuberculosis H37Rv; type: functional, organism-based
[21] = tested on: Rattus norvegicus; assay: Anti-inflammatory activity in Wistar albino rat assessed as inhibition of carrageenan-induced paw edema at 100 mg/kg, po via gavage measured after 1 hr by plethysmometric method relative to control; type: functional
[22] = tested on: Rattus norvegicus; assay: Anti-inflammatory activity in rat assessed as inhibition of carrageenan-induced paw edema after 4 hrs relative to control; type: functional
[23] = Inhibition of Human cytomegalovirus protease; set-up: species or system Human betaherpesvirus 5
[24] = target: Protein farnesyltransferase (Homo sapiens, UniProt P49354+P49356); assay: Inhibition of FTase (unknown origin) assessed as reduction in transfer of [3H]FPP to Ki-Ras; type: protein-complex assay
[25] = tested on: Staphylococcus aureus; assay: Antibacterial activity against Staphylococcus aureus assessed as zone of inhibition; type: functional
[26] = tested on: Alternaria alternata; assay: Antifungal activity against Alternaria alternata assessed as zone of inhibition; type: functional
[27] = tested on: Human immunodeficiency virus 1; assay: Antiviral activity against HIV1; type: functional, organism-based
[28] = target: Prostaglandin G/H synthase 2 (Homo sapiens) (UniProt P35354); assay: Inhibition of COX2 (unknown origin) at 10 uM relative to control
[29] = target: Prostaglandin G/H synthase 1 (Homo sapiens) (UniProt P23219); assay: Inhibition of COX1 (unknown origin) at 10 uM relative to control
[30] = tested on: Human immunodeficiency virus 1; assay: Antiviral activity against HIV1 infected in human MT4 cells; type: functional, organism-based; details: Human immunodeficiency virus 1, MT4
[31] = Induction of apoptosis in human NB4.437r cells by Annexin V/propidium iodide staining based flow cytometry; type: functional, cell-based
[32] = tested on: Cryptococcus neoformans; assay: Antifungal activity against Cryptococcus neoformans; type: functional
[33] = target: Angiotensin II receptor (Homo sapiens, UniProt P30556+P50052); assay: Antagonist activity at angiotensin-2 receptor (unknown origin); type: protein assay
[34] = target: Prostaglandin G/H synthase 2 (Homo sapiens, UniProt P35354); assay: Inhibition of COX2 (unknown origin)
[35] = tested on: Neutrophil; assay: Anti-inflammatory activity in human neutrophils assessed as inhibition of fMLP/cytochalasin B-induced superoxide anion generation preincubated for 5 mins followed by fMLP/cytochalasin B addition and measured after 10 mins by spectrophotometric method; type: functional, cell-based
[36] = tested on: Neutrophil; assay: Anti-inflammatory activity in human neutrophils assessed as inhibition of fMLP/cytochalasin B-induced elastase release preincubated for 5 mins followed by fMLP/cytochalasin B addition; type: functional, cell-based

Chain of Prostaglandin G/H synthase 1 (Homo sapiens) (P23219 whole entry): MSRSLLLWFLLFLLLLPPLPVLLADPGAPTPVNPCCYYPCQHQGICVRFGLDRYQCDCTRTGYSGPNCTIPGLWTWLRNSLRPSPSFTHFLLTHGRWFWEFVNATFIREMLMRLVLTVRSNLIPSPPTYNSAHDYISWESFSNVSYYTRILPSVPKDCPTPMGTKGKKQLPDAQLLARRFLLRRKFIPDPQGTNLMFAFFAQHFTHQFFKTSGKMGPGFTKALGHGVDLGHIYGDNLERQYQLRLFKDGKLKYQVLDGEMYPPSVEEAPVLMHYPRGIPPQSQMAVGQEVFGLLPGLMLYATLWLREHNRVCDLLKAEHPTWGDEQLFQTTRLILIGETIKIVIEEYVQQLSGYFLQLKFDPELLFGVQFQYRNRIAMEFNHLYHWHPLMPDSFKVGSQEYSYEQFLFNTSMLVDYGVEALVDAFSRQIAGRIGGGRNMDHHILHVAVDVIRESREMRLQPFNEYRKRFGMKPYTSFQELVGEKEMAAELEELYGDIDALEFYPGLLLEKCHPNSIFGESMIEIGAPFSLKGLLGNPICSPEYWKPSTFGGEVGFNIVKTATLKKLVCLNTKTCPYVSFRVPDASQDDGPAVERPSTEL
Chain of Prostaglandin G/H synthase 2 (P35354 whole entry): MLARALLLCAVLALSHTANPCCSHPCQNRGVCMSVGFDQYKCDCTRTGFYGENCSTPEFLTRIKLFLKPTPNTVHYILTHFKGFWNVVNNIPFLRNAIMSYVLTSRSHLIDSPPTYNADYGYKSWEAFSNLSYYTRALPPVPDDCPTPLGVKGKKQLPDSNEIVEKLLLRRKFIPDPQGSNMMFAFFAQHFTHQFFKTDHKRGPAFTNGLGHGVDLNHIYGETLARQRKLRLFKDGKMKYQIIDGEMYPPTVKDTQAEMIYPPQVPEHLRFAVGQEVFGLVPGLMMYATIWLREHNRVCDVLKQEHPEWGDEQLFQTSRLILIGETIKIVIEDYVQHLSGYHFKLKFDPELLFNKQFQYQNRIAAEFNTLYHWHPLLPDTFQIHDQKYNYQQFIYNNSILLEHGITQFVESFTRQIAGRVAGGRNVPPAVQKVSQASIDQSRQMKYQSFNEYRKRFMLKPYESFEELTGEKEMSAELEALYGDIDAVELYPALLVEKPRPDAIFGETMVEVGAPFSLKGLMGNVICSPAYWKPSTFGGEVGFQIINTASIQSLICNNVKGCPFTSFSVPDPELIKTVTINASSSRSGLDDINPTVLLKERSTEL
Chain of Prostaglandin G/H synthase 2 (Homo sapiens) (P35354 whole entry): as above
Chain of Chymase (P23946 whole entry): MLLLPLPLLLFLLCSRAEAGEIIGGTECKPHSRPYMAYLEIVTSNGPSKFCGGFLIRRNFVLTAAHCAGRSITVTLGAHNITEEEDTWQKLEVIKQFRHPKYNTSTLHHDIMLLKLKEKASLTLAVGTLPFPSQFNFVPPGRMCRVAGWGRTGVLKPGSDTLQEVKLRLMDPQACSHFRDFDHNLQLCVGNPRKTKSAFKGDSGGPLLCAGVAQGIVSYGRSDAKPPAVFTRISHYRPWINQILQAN

SMILES: c1ccc(-c2ccc3c(c2)CCCC3)cc1
- MIC [1]: 780 µg/mL (≈ 3740 µM)

SMILES: Cc1nc(/N=N/c2cc(S(=O)(=O)O)c3cc([N+](=O)[O-])cc(S(=O)(=O)O)c3c2)cc(C=O)c1O
- IC50 [2]: 0.45 µM

SMILES: COc1ccc(/C=C\c2ccc3ccccc3c2)cc1O
- IC50 [3]: 6.4 µM
- IC50 [4]: 7.4 µM
- IC50 [5]: 5.4 µM
- IC50 [6]: 5.4 µM

SMILES: O=C(CCNc1c(Br)cc(Br)cc1C(=O)O)Nc1ccc2ccccc2c1
- inhibition (INH) [7]: 67.37%

SMILES: O=C(c1ccc2ccccc2c1)C(c1cccc2ccccc12)P(=O)(O)O (centres undefined)
- Ki [8]: 0.0023 µM

SMILES: COc1ccccc1NC(=O)c1cccc2ccccc12
- MIC [9]: 54 µM (≈ 15 µg/mL)

SMILES: CSc1ncc(-n2nc(C(C)C)cc2NC(=O)Nc2ccc(-c3ccc(CN(C)C)nc3)c3ccccc23)cn1
- IC50 [10]: < 10 µM

SMILES: CN(C)CC1C(=O)c2cccc3cc([N+](=O)[O-])cc(c23)C1=O (centres undefined)
- IC50 [11]: 0.15 µg/mL (≈ 0.503 µM)

SMILES: CC(=O)Oc1ccc2[nH]c3c(c2c1)C(=O)c1ccccc1C3=O
- IC50 [12]: 1.31 µM

SMILES: CC(C)c1cccc(OC(=O)Nc2ccc(-c3ccc(CN4CCOCC4)nc3)c3ccccc23)c1
- IC50 [10]: < 10 µM

SMILES: COc1cc2c3c([nH]c2cc1Cl)C(=O)c1ccccc1C3=O
- IC50 [12]: 53.1 µM

SMILES: COC(=O)C(NC(=O)COc1ccc2ccccc2c1)C(C)C (centres undefined)
- CC50 [13]: 42 µM

SMILES: COc1cc(OC)c(C2=CCN(C)CC2)c(O)c1C(=O)/C=C/c1ccc2ccccc2c1
- IC50 [14]: 6.5 µM

SMILES: COc1ccc2cc([C@H](C)C(=O)O)ccc2c1 [NAPROXEN]
- inhibition (INH) [7]: 85.02%

SMILES: CN1CCC(N)CC1c1ccc(-c2ccc(N)c3ccccc23)cn1 (centres undefined)
- IC50 [10]: < 10 µM

SMILES: COc1ccc2cc(C(C)C(=O)NC(=S)Nc3ccc(CS(=O)(=O)Nc4cc(C)on4)cc3)ccc2c1 (centres undefined)
- inhibition (INH) [7]: 89.77%

SMILES: COc1cc(/C=C\c2ccc3ccccc3c2)cc(OC)c1OC [NAPHTHYLCOMBRETASTATIN]
- IC50 [3]: 6.4 µM
- IC50 [4]: 7.4 µM
- IC50 [5]: 5.4 µM
- IC50 [6]: 5.4 µM

SMILES: CN(C)CCNC(=O)c1cc2c3c(cccc3c1)Sc1ccccc1-2
- IC50 [3]: 0.176 µM

SMILES: CCN(CC)CC1C(=O)c2cccc3cc([N+](=O)[O-])cc(c23)C1=O (centres undefined)
- IC50 [11]: 2.5 µg/mL (≈ 7.66 µM)

SMILES: CC(=O)Oc1ccc2c(c1)c1c(n2C)C(=O)c2ccccc2C1=O
- IC50 [12]: 1.01 µM

SMILES: COc1ccc(/C=C/c2ccc3ccccc3c2)cc1O
- IC50 [3]: 6.4 µM
- IC50 [4]: 7.4 µM
- IC50 [5]: 5.4 µM
- IC50 [6]: 5.4 µM

SMILES: O=C1c2cccc3cc([N+](=O)[O-])cc(c23)C(=O)C1CN1CCCC1 (centres undefined)
- IC50 [11]: 0.3 µg/mL (≈ 0.925 µM)

SMILES: C(=C\c1ccc2ccccc2c1)/c1ccc2ccccc2c1
- IC50 [3]: 6.4 µM
- IC50 [4]: 7.4 µM
- IC50 [5]: 5.4 µM
- IC50 [6]: 5.4 µM

SMILES: COc1cc(/C=C/c2ccc3ccccc3c2)cc(OC)c1OC
- IC50 [3]: 6.4 µM
- IC50 [4]: 7.4 µM
- IC50 [5]: 5.4 µM
- IC50 [6]: 5.4 µM

SMILES: Nc1ccc(-c2ccc(CC3CCOC3)c(O)c2)c2ccccc12 (centres undefined)
- IC50 [10]: < 10 µM

SMILES: CC(C)NC(=N)c1ccc2c(c1)nc(-c1ccc3c(c1)C(C)(C)CCC3(C)C)n2Cc1ccc2ccccc2c1
- MIC [15]: 0.78 µg/mL (≈ 1.48 µM)
- MIC [16]: 0.78 µg/mL (≈ 1.48 µM)

SMILES: Sc1nnc(COc2ccc3ccccc3c2)o1
- MIC [17]: 64 µg/mL (≈ 248 µM)

SMILES: COc1ccc2[nH]c3c(c2c1)C(=O)c1ccccc1C3=O
- IC50 [12]: 45.4 µM

SMILES: O=c1[nH]nc(COc2cccc3ccccc23)o1
- MIC [17]: 64 µg/mL (≈ 264 µM)

SMILES: O=C1C(O)=C(C(Nc2ccccn2)c2ccccc2O)C(=O)c2ccccc21 (centres undefined)
- MIC [18]: 25 µg/mL (≈ 67.1 µM)

SMILES: Nc1ccc(-c2ccc(Cc3cccnc3)c(O)c2)c2ccccc12
- IC50 [10]: < 10 µM

SMILES: COc1nc2ccc(Br)cc2cc1[C@H](c1ccccc1)N(C(=O)CN1CCOCC1)[C@@H](C)c1cccc2ccccc12
- MIC [19]: 60 µg/mL (≈ 96.1 µM)

SMILES: O=C(Cc1cccc2c1CCCC2)N/N=C/c1ccc(O)c([N+](=O)[O-])c1
- IC50 [20]: 3.07 µg/mL (≈ 8.69 µM)

SMILES: COc1ccc2cc(-c3nnc(-c4cc(Cl)cc(Cl)c4)o3)ccc2c1
- inhibition in vivo at 100 mg/kg [21]: 71.1%

SMILES: Oc1c(C2=NNC(c3ccc(Br)cc3)C2)ccc2ccccc12 (centres undefined)
- inhibition (INH) [22]: 68.96%

SMILES: CN(C)CCOc1ccc2c(c1)c1c(n2C)C(=O)c2ccccc2C1=O
- IC50 [12]: 0.28 µM

SMILES: O=C(O)c1ccc(CNc2ccc3c(/C=C/c4ccc5ccc(Cl)cc5n4)cccc3c2)cc1
- IC50 [23]: 2.7 µM

SMILES: CSCC[C@H](NC(=O)c1cccc2cc(NC[C@@H](N)CS)ccc12)C(=O)O
- IC50 [24]: 0.017 µM

SMILES: Nc1cccc2cccc(/N=C3/CCC/C(=N\c4cccc5cccc(N)c45)C3)c12
- inhibition zone (IZ) [25]: 10 mm
- inhibition zone (IZ) [26]: 10.5 mm

SMILES: COc1nc2ccc(Br)cc2cc1[C@@H](c1ccccc1)[C@@](O)(CCN(C)C)c1cccc2ccccc12 [BEDAQUILINE]
- MIC [19]: 0.06 µg/mL (≈ 0.108 µM)

SMILES: CC(C)C(NC(=O)COc1ccc2ccccc2c1)C(=O)NN (centres undefined)
- EC50 [27]: 42 µg/mL (≈ 133 µM)

SMILES: COc1cc(OC)c(C2=CCN(C)CC2)c(O)c1C(=O)/C=C/c1cccc2ccccc12
- IC50 [14]: 6.5 µM

SMILES: CC(=O)Oc1ccc2c(c1)c1c(n2CCN(C)C)C(=O)c2ccccc2C1=O
- IC50 [12]: 0.17 µM

SMILES: COc1ccc2c(c1)CCC(NS(C)(=O)=O)C2 (centres undefined)
- inhibition [28]: 50%
- inhibition [29]: 87%

SMILES: O=C(COc1ccc2ccccc2c1)NCc1nnc(SCc2nc3ccccc3[nH]2)n1-c1ccccc1
- EC50 [30]: 0.2 µg/mL (≈ 0.384 µM)

SMILES: O=C(O)c1ccc2cc(-c3ccc(O)c(C45CC6CC(CC(C6)C4)C5)c3)ccc2c1 [O-DEMETHYLATED ADAPALENE]
- EC50 [31]: 11.9 µM

SMILES: O=[N+]([O-])c1ccc2c(c1)-c1nnsc1CC2
- MIC [32]: 0.53 µg/mL (≈ 2.27 µM)

SMILES: N#CCCCOc1ccc(-c2ccc(N)c3ccccc23)cn1
- IC50 [10]: < 10 µM

SMILES: Nc1nnc(COc2cccc3ccccc23)o1
- MIC [17]: 64 µg/mL (≈ 265 µM)

SMILES: NS(=O)(=O)c1ccc2c(c1)-c1nnsc1CC2
- MIC [32]: 0.53 µg/mL (≈ 1.98 µM)

SMILES: CC(=O)c1ccnc(C2=CC(=O)c3ccccc3C2=O)c1
- MIC [20]: 3.13 µg/mL (≈ 11.3 µM)

SMILES: CN(C)CCNC(=O)c1cc2c3ccccc3sc2c2ccccc12
- IC50 [3]: 0.428 µM

SMILES: CCC(Cl)Cc1nc(CO)cn1Cc1ccc2cc(-c3nnn[nH]3)ccc2c1 (centres undefined)
- IC50 [33]: 0.2 µM

SMILES: CS(=O)(=O)Nc1cc(Cc2ccc(Cl)cc2)c2ccccc2c1
- IC50 [34]: 10 µM

SMILES: COc1ccc2cc(CCS(C)(=O)=O)ccc2c1
- inhibition [28]: 65%
- inhibition [29]: 29%
- IC50 [34]: 10 µM

SMILES: COc1cc(C(C)=O)c(O)c2ccc(O)cc12
- IC50 [35]: 1.9 µg/mL (≈ 8.18 µM)
- IC50 [36]: 3.17 µg/mL (≈ 13.6 µM)

SMILES: COc1ccccc1C1CC(Nc2ccc3ccccc3c2)=NN1C(C)=O (centres undefined)
- inhibition (INH) [7]: 67.85%

SMILES: O=C(Nc1cccc(F)c1)c1cccc2ccccc12
- MIC [9]: 59 µM (≈ 15.7 µg/mL)

SMILES: O=C1c2cccc3cc([N+](=O)[O-])cc(c23)C(=O)C1CN1CCCCC1 (centres undefined)
- IC50 [11]: 2 µg/mL (≈ 5.91 µM)

SMILES: C(=C/c1ccc2ccccc2c1)/c1ccc2ccccc2c1
- IC50 [3]: 6.4 µM
- IC50 [4]: 7.4 µM
- IC50 [5]: 5.4 µM
- IC50 [6]: 5.4 µM
